{"source": "patent US12098411B2", "about": "“Exogenous ketone blend compositions for delivery of ketone bodies” (KetoneAid, Inc., priority 2016, dated 2024)", "key": {"[1]": {"conditions": "cited from earlier work"}, "[2]": {"test": "Ketone blood concentration after ingestion of 1,3-butanediol (FIG. 5, FIG. 6)", "assay_type": "in vivo, human", "source_text": "FIG. 5 depicts an exemplary ketone blood concentration after ingestion of racemic 1,3-butanediol.\nFIG. 6 depicts a ketone blood concentration after one person ingested (D)-1,3-butanediol, compared to the results of two people ingesting racemic 1,3-butanediol.\nIt should also be noted that only the D enantiomer is active in the body as a source of extracellular fuel that is then transported into the cells. Ketone blood level meters currently on the market only measure the blood level of the D enantiomer. Products containing racemic salts require two to three times the amount of sodium, calcium and potassium for an equal amount of (D)-β-hydroxybutyrate. A reason the potential levels of (D)-β-hydroxybutyrate in the blood is over double compared with an equal amount of the racemic solutions is because the body has to waste energy and uses up some of the (D)-β-hydroxybutyrate to burn off the unnatural (L)-β-hydroxybutyrate.\nFIG. 5 depicts exemplary results from ingestion of 33 ml racemic 1,3-butanediol. […] For example, as shown, 33 ml of the non-racemic (D) form provided an increase in ketones of approximately 3.2 mmol/L whereas the racemic form provided approximately 0.9-1.0 mmol/L increases over pre consumption ketone levels."}, "[3]": {"test_system": "pyruvate dehydrogenase impairment", "test": "Relief of fatigue and cognitive impairment in persons suffering with ALS", "assay_type": "in vivo, human", "source_text": "Persons suffering with ALS display chronic fatigue and chronic cognitive impairment. The mechanism of impairment has been traced to an impairment with pyruvate dehydrogenase in the mitochondria. Cells of the central nervous system, the heart and skeletal muscles, due to the impairment, lack the critical energy or ATP to function normally. (D)-β-hydroxybutyrate circumvents the pyruvate dehydrogenase impairment and provides for far higher energy and ATP creation in those cells. […] The dosing regimen should be between 5-60 grams 1-3 times per day with the preferred amount to be between 20-40 grams 3 times per day."}}, "note": "Where two headings read alike, the source gives them in different places.", "data": [{"compound": "CC(O)CC(=O)[O-].[K+]", "note": "(racemic) [racemic potassium β-hydroxybutyrate, potassium β-hydroxybutyrate]", "values": [{"measurement": "blood ketones reachable", "setting": "[1]; consumed at about 100% of potassium's RDA", "result": "approximately 0.5 mmol/L"}]}, {"compound": "CC(O)CC(=O)[O-].[Na+]", "note": "(racemic) [racemic sodium β-hydroxybutyrate, sodium β-hydroxybutyrate]", "values": [{"measurement": "blood ketones reachable", "setting": "[1]; consumed at about 100-200% of the RDA for sodium", "result": "approximately 0.5 mmol/L"}]}, {"compound": "CC(O)CCO", "note": "(centres unmarked) [(D)-1,3-butanediol]", "values": [{"measurement": "amount of ketones (mmol) in the blood relative to racemic 1,3-butanediol", "setting": "[2]; 33 ml each, over a 120 minute period", "result": "over double"}, {"measurement": "increase in ketones over pre consumption ketone levels", "setting": "[2]; ingestion of 33 ml", "result": "approximately 3.2 mmol/L"}]}, {"compound": "C[C@@H](O)CC(=O)O", "note": "[(D)-β-hydroxybutyrate]", "values": [{"measurement": "time to significant reduction of fatigue and cognitive impairment after ingestion", "setting": "[3]", "result": "≤ 15", "unit": "min"}]}]}
